The results in this text go back to US20080004253A1, “Thiazolopyrimidine modulators of TRPV1” (priority 2006, published 2008).

One experiment has as its target T1, rat TRPV1 (Rattus norvegicus, UniProt O35433).
T1 construct: expressed in transfected cells; host or cells: HEK293 (rTRPV1/HEK293), geneticin selection
As to the kind of experiment: Functional assay: block of capsaicin-induced Ca2+ influx, rat assay (rTRPV1/HEK293, FLIPR). In kind it is cell-based. Particulars: rTRPV1/HEK293 cells, capsaicin challenge, Fluo-3 fluorescence; mean; > value = solubility limit in assay medium. The method, boiled down:
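Compounds, as free base or TFA salt, tested from 10 μM in three-fold steps on rTRPV1-transfected HEK293 cells, with 30 min preincubation in low-calcium (20 μM) buffer. Capsaicin-evoked Ca2+ influx measured by FLIPR fluo3 signal before and 100 s after addition. Averaged IC50 from non-linear fits.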

Another experiment addresses T2, human TRPV1 (Homo sapiens, UniProt Q8NER1).
T2 construct: expressed in transfected cells; host or cells: HEK293 (hTRPV1/HEK293), zeocin selection
Nature of the experiment: Functional assay: block of capsaicin-induced Ca2+ influx, human assay (hTRPV1/HEK293, FLIPR). Type of experiment: cell-based. The conditions noted are these: hTRPV1/HEK293 cells, 150 nM capsaicin challenge, Fluo-3 fluorescence; mean; > value = solubility limit in assay medium. Summed up: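 HEK293 cells stably expressing human TRPV1, fluo3-loaded, preincubated 30 min with compound (serial 3-fold dilutions from 10 μM, duplicate) in 20 μM Ca2+ buffer. Capsaicin response taken as fluo3 fluorescence change before vs 100 s after agonist; IC50 by non-linear regression, mean values; free base or TFA salt.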

Molecules are shown by their SMILES.

T1 sequence (O35433 whole entry): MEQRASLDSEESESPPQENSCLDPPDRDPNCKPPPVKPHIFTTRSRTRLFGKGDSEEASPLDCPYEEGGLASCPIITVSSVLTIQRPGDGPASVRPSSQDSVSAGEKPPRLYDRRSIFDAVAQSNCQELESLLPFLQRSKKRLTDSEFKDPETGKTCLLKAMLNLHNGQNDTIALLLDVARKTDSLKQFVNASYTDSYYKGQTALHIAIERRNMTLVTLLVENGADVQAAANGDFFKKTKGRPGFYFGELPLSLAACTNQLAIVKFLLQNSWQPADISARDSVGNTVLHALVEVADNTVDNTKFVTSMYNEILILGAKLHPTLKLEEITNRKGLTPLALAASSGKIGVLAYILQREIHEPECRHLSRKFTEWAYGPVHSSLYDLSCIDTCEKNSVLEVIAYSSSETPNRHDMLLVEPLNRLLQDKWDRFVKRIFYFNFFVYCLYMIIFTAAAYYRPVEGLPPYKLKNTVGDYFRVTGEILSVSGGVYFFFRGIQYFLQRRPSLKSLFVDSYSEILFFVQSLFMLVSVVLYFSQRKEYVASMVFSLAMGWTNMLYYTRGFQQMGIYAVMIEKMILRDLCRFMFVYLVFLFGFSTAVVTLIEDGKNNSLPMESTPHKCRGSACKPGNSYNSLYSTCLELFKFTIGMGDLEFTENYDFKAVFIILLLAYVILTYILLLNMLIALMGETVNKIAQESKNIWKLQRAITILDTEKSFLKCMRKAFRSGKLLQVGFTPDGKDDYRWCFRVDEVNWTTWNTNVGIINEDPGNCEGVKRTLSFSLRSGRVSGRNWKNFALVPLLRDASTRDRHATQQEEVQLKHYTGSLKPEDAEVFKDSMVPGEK
T2 sequence (Q8NER1 whole entry): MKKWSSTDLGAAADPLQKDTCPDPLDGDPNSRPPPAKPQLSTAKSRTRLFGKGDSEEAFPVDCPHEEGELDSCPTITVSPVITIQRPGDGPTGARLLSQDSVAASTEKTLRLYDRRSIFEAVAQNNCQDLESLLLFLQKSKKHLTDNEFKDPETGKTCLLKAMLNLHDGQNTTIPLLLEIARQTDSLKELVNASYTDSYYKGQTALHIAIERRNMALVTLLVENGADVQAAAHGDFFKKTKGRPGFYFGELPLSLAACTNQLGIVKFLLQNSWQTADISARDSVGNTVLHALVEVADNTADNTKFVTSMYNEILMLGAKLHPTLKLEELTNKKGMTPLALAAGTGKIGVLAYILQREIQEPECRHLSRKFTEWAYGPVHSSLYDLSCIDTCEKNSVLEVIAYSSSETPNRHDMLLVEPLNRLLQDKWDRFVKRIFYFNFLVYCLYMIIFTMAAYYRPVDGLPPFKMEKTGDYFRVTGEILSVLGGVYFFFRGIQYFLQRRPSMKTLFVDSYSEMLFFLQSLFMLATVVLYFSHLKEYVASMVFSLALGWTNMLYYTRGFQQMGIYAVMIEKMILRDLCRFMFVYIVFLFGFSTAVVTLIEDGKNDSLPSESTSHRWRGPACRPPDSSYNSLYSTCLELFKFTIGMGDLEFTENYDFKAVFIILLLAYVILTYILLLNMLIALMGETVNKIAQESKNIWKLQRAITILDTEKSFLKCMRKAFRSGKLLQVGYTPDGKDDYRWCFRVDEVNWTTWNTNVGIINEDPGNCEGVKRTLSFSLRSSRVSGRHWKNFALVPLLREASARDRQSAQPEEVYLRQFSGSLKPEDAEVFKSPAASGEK

Turning to `CC(C)OC(=O)C(C)(C)c1ccc(Nc2ncnc3sc(Nc4c(Cl)cccc4Cl)nc23)cc1` [Example 231, 1-Methylethyl 2-[4-({2-[(2,6-dichlorophenyl)amino][1,3]thiazolo[5,4-d]pyrimidin-7-yl}amino)phenyl]-2-methylpropanoate], the results for the IC50 at rat TRPV1 and on human TRPV1 were 81 nM and 698 nM, respectively.
`FC(F)(F)c1ccc(Nc2ncnc3sc(NC4CCCCC4)nc23)cc1` [Example 232, N^2-Cyclohexyl-N^7-[4-(trifluoromethyl)phenyl][1,3]thiazolo[5,4-d]pyrimidine-2,7-diamine]: the IC50 at rat TRPV1 was 3190 nM; at human TRPV1 it was over 6670 nM.
The corresponding values for `FC(F)(F)c1ccc(Nc2ncnc3sc(NC4CCCCC4)nc23)cn1` [Example 233, N^2-Cyclohexyl-N^7-[6-(trifluoromethyl)pyridin-3-yl][1,3]thiazolo[5,4-d]pyrimidine-2,7-diamine] are 7720 nM and 7070 nM.
The corresponding values for `N#Cc1cc(Cl)c(Nc2nc3c(Nc4ccc(C(F)(F)F)cc4)ncnc3s2)c(Cl)c1` [Example 234, 3,5-Dichloro-4-[7-(4-trifluoromethyl-phenylamino)-thiazolo[5,4-d]pyrimidin-2-ylamino]-benzonitrile] are 68 nM and 140 nM.
The corresponding values for `NC(=O)c1cc(Cl)c(Nc2nc3c(Nc4ccc(C(F)(F)F)cc4)ncnc3s2)c(Cl)c1` [Example 235, 3,5-Dichloro-4-[7-(4-trifluoromethyl-phenylamino)-thiazolo[5,4-d]pyrimidin-2-ylamino]-benzamide] are 61 nM and 90 nM.
In the case of `CS(=O)(=O)c1ccc(Nc2ncnc3sc(Nc4c(Cl)cc(C#N)cc4Cl)nc23)cc1` [Example 236, 3,5-Dichloro-4-[7-(4-methanesulfonyl-phenylamino)-thiazolo[5,4-d]pyrimidin-2-ylamino]-benzonitrile], the results for the half-maximal inhibitory concentration (IC50) on rat TRPV1 and at human TRPV1 were 38 nM and 115 nM, respectively.
The corresponding values for `CS(=O)(=O)c1ccc(Nc2ncnc3sc(Nc4c(Cl)cc(C(N)=O)cc4Cl)nc23)cc1` [Example 237, 3,5-Dichloro-4-[7-(4-methanesulfonyl-phenylamino)-thiazolo[5,4-d]pyrimidin-2-ylamino]-benzamide] are 189 nM and 840 nM.
The corresponding values for `FC(F)(F)c1ccc(Nc2ncnc3sc(Nc4c(Cl)cc(CN5CCOCC5)cc4Cl)nc23)cc1` [Example 238, N^2-(2,6-Dichloro-4-morpholin-4-ylmethyl-phenyl)-N^7-(4-trifluoromethyl-phenyl)-thiazolo[5,4-d]pyrimidine-2,7-diamine] are 215 nM and 223 nM.
The corresponding values for `FC(F)(F)c1ccc(Nc2ncnc3sc(Nc4c(Cl)cc(CN5CCC5)cc4Cl)nc23)cc1` [Example 239, N^2-(4-Azetidin-1-ylmethyl-2,6-dichloro-phenyl)-N^7-(4-trifluoromethy-phenyl)-thiazolo[5,4-d]pyrimidine-2,7-diamine] are 3750 nM and 3420 nM.
With `NCc1cc(Cl)c(Nc2nc3c(Nc4ccc(C(F)(F)F)cc4)ncnc3s2)c(Cl)c1` [Example 240, N^2-(4-Aminomethyl-2,6-dichloro-phenyl)-N^7-(4-trifluoromethyl-phenyl)-thiazolo[5,4-d]pyrimidine-2,7-diamine], the IC50 turned out to be 61 nM at rat TRPV1 and 154 nM against human TRPV1.
As to `COC(=O)c1cc(Cl)c(Nc2nc3c(Nc4ccc(C(F)(F)F)cc4)ncnc3s2)c(Cl)c1` [Example 241, 3,5-Dichloro-4-[7-(4-trifluoromethyl-phenylamino)-thiazolo[5,4-d]pyrimidin-2-ylamino]-benzoic acid methyl ester], the IC50 against rat TRPV1 was found to be 3200 nM; against human TRPV1, 820 nM.
Take `OCc1cc(Cl)c(Nc2nc3c(Nc4ccc(C(F)(F)F)cc4)ncnc3s2)c(Cl)c1` [Example 242, {3,5-Dichloro-4-[7-(4-trifluoromethyl-phenylamino)-thiazolo[5,4-d]pyrimidin-2-ylamino]-phenyl}-methanol]: the IC50 against rat TRPV1 and on human TRPV1 was 1 nM throughout.
Take `O=C(O)c1cc(Cl)c(Nc2nc3c(Nc4ccc(C(F)(F)F)cc4)ncnc3s2)c(Cl)c1` [Example 243, 3,5-Dichloro-4-[7-(4-trifluoromethyl-phenylamino)-thiazolo[5,4-d]pyrimidin-2-ylamino]-benzoic acid]: the IC50 against rat TRPV1 worked out at 6540 nM; against human TRPV1 it was 4610 nM.
The corresponding values for `Cc1nc(Nc2ccc(C(C)(C)C)cc2)c2nc(Nc3c(C)cccc3C)sc2n1` [Example 244, N^7-(4-tert-Butyl-phenyl)-N^2-(2,6-dimethyl-phenyl)-5-methyl-thiazolo[5,4-d]pyrimidine-2,7-diamine] are 3 nM and 12 nM.
In the case of `Cc1nc(Nc2ccc(C(F)(F)F)cc2)c2nc(Nc3c(C)cccc3C)sc2n1` [Example 245, N^2-(2,6-Dimethyl-phenyl)-5-methyl-N^7-(4-trifluoromethyl-phenyl)-thiazolo[5,4-d]pyrimidine-2,7-diamine], the IC50 against rat TRPV1 amounted to 5 nM; on human TRPV1, 6 nM.
The corresponding values for `Cc1nc(Nc2ccc(C(F)(F)F)nc2)c2nc(Nc3c(C)cccc3C)sc2n1` [Example 246, N^2-(2,6-Dimethyl-phenyl)-5-methyl-N^7-(6-trifluoromethyl-pyridin-3-yl)-thiazolo[5,4-d]pyrimidine-2,7-diamine] are 22 nM and 18 nM.
The corresponding values for `Cc1nc(Nc2ccc(C(F)(F)F)c(Cl)c2)c2nc(Nc3c(C)cccc3C)sc2n1` [Example 247, N^7-(3-Chloro-4-trifluoromethyl-phenyl)-N^2-(2,6-dimethyl-phenyl)-5-methyl-thiazolo[5,4-d]pyrimidine-2,7-diamine] are 19 nM and 35 nM.
The corresponding values for `C[C@@H](O)CNc1nc(Nc2ccc(C(F)(F)F)cc2)c2nc(Nc3c(Cl)cccc3Cl)sc2n1` [Example 250, (R)-1-[2-(2,6-Dichloro-phenylamino)-7-(4-trifluoromethyl-phenylamino)-thiazolo[5,4-d]pyrimidin-5-ylamino]-propan-2-ol] are 0.7 nM and 3.3 nM.
As for `CC(C)(O)CNc1nc(Nc2ccc(C(F)(F)F)cc2)c2nc(Nc3c(Cl)cccc3Cl)sc2n1` [Example 251, 1-[2-(2,6-Dichloro-phenylamino)-7-(4-trifluoromethyl-phenylamino)-thiazolo[5,4-d]pyrimidin-5-ylamino]-2-methyl-propan-2-ol], the IC50 at rat TRPV1 amounted to 110 nM; on human TRPV1, 290 nM.

As a reminder, the IC50 is the concentration that gives 50% inhibition.
